Each structure is given as a SMILES string. Calls of active or inactive are those of the source. The calls are words filed in the database; no cut-off is given here.

For assay [1], the target named is T1, Secreted frizzled-related protein 1 (Homo sapiens) (UniProt Q8N474).
T1 sequence (whole entry): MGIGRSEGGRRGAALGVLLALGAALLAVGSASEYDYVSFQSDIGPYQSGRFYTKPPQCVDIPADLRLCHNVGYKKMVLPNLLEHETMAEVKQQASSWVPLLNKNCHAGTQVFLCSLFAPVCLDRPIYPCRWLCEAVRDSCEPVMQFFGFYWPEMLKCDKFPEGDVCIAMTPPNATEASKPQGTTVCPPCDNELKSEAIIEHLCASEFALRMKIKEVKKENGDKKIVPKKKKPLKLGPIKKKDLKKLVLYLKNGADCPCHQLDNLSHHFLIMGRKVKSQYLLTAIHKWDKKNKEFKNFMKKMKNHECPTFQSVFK
Kind of assay: Inhibition of human SFRP1 transfected in human U20S cells at 15 uM by TCF-luciferase reporter gene assay relative to control. The assay is classed as cell-based. As to conditions: U2OS. For orientation: In a reporter assay the amount or activity of a reporter protein is the signal.

For assay [2], the target named is T1, Secreted frizzled-related protein 1 (Homo sapiens). Briefly: Inhibition of human SFRP1 transfected in human U20S cells at 30 uM by TCF-luciferase reporter gene assay relative to control. The assay is classed as cell-based. Conditions: U2OS.
The species named for assay [3] is Mus musculus. Kind of assay: Ex vivo osteogenic activity in mouse calvaria assessed in increase in total bone area at 15 uM. The assay is classed as functional.
Assay [4] is filed under the species Mus musculus. Briefly: Ex vivo osteogenic activity in mouse calvaria assessed in increase in osteoblasts number at 15 uM. The assay is classed as functional.
Assay [5] has as its target T2, Secreted frizzled-related protein 1 (Homo sapiens, UniProt Q8N474).
T2 sequence (Q8N474 whole entry): T1 sequence (whole entry)
Briefly: Binding affinity to human SFRP1 by fluorescence spectroscopy.

The target of assay [6] is Proto-oncogene Wnt-3 (Homo sapiens) (UniProt P56703). Briefly: Binding affinity to Wnt3.
Proto-oncogene Wnt-3 (Homo sapiens), sequence (P56703 whole entry): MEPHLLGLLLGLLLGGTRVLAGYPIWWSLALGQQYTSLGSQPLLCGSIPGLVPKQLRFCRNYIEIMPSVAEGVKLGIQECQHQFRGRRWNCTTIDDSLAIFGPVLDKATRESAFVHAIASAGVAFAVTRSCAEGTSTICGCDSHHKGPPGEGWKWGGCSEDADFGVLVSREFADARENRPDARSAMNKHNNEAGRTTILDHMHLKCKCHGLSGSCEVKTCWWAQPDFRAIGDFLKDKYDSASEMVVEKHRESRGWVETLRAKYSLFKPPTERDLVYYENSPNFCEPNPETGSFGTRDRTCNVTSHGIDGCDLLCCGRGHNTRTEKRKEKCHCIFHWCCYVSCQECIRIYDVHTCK
In assay [7] the target is T2, Secreted frizzled-related protein 1. Kind of assay: Inhibition of human SFRP1 transfected in human U20S cells by TCF-luciferase reporter gene assay. The assay is classed as cell-based, U2OS.
For assay [8], the target named is Secreted frizzled-related protein 1 (Homo sapiens) (UniProt Q8N474). Kind of assay: Inhibition of human SFRP1.

Turning to `N#Cc1c(NC(=O)CC2SC(=N)NC2=O)sc2c1CCCC2` (stereo unspecified), the fold change (FC) in assay [1] was 1.2.

Consider `N=C1NC(=O)C(CC(=O)Nc2ccccc2)S1` (stereo unspecified), for which the fold change (FC) in assay [2] was 1.1.

For `CCOC(=O)c1c(NC(=O)CC2SC(=N)NC2=O)sc(C)c1-c1ccccc1` (stereo unspecified), the fold change (FC) in assay [1] was 1.8.

In the case of `CCOC(=O)c1c(NC(=O)CC2SC(=N)NC2=O)sc(-c2ccccc2)c1C` (stereo unspecified), the fold change (FC) in assay [1] came out at 0.8.

For `CCOC(=O)c1cc(CC)sc1NC(=O)CC1SC(=N)NC1=O` (stereo unspecified), the fold change (FC) in assay [1] came to 1.7.

With `CCOC(=O)c1c(NC(=O)CC2SC(=N)NC2=O)sc(C)c1C` (stereo unspecified), the outcome in the assay listed under Mus musculus [3] and in the assay filed under Mus musculus [4] was Active. Further, the fold change (FC) in assay [1] is 2.3.

On to `CCOC(=O)c1c(NC(=O)CC2SC(=N)NC2=O)sc2c1CCC2` (stereo unspecified), for which the fold change (FC) in assay [1] came to 1.5.

For the compound `COC(=O)c1ccsc1NC(=O)CC1SC(=N)NC1=O` (stereo unspecified), the fold change (FC) in assay [1] is 1.2.

Consider `CCOC(=O)c1c(NC(=O)CC2SC(=N)NC2=O)sc(Br)c1CNc1ccccc1` (stereo unspecified), for which, in assay [1], the fold change (FC) amounted to 2.5.

As to `CCOC(=O)c1c(NC(=O)CC2SC(=O)NC2=O)sc2c1CCCC2` (stereo unspecified), the fold change (FC) in assay [1] was 1.

In the case of `CCOC(=O)c1c(C)csc1NC(=O)CC1SC(=N)NC1=O` (stereo unspecified), in assay [1], the fold change (FC) worked out at 2.

Take `CCOC(=O)c1c(NC(=O)CC2S/C(=N/C)NC2=O)sc(C)c1C` (stereo unspecified): the fold change (FC) in assay [1] was determined as 1.2.

`N=C1NC(=O)C(CC(=O)Nc2cccc(Cl)c2)S1` (stereo unspecified): in assay [2], the fold change (FC) stood at 1.7.

In the case of `N=C1NC(=O)C(CC(=O)Nc2sc3c(c2C(N)=O)CCCC3)S1` (stereo unspecified), the fold change (FC) in assay [1] came to 1.1.

Turning to `CCOC(=O)c1c(NC(=O)CC2SC(=N)NC2=O)sc2c1CCCCC2` (stereo unspecified), in assay [1], the fold change (FC) came to 1.9.

As for `CCOC(=O)c1cccc(NC(=O)CC2SC(=N)NC2=O)c1` (stereo unspecified), in assay [2], the fold change (FC) is 1.5.

On to `COC(=O)c1c(NC(=O)CC2SC(=N)NC2=O)sc(C)c1C` (stereo unspecified), for which the fold change (FC) in assay [1] worked out at 1.9. This compound also showed a Kd in assay [5] of 0.72 µM. The result in assay [6] and in assay [8] was Active. In addition, the EC50 in assay [7] is 7.2 µM.

In the case of `CCOC(=O)c1c(NC(=O)CC2S/C(=N/C)N(C)C2=O)sc(C)c1C` (stereo unspecified), in assay [1], the fold change (FC) worked out at 1.2.

Take `CCOC(=O)c1c(NC(=O)CC2SC(=N)NC2=O)sc(Br)c1C` (stereo unspecified): in assay [1], the fold change (FC) came to 2.6.

For the compound `N=C1NC(=O)C(CC(=O)Nc2cccc(Cl)c2Cl)S1` (stereo unspecified), the fold change (FC) in assay [2] worked out at 1.

Regarding `CC/N=C1\NC(=O)C(CC(=O)Nc2sc(C)c(C)c2C(=O)OCC)S1` (stereo unspecified), in assay [1], the fold change (FC) worked out at 1.2.

For the compound `COC(=O)c1cc(-c2ccccc2)sc1NC(=O)CC1SC(=N)NC1=O` (stereo unspecified), in assay [1], the fold change (FC) is 0.9.

With `N=C1NC(=O)C(CC(=O)NCc2cccc(Cl)c2)S1` (stereo unspecified), in assay [2], the fold change (FC) stood at 1.

`CCOC(=O)c1ccccc1NC(=O)CC1SC(=N)NC1=O` (stereo unspecified): the fold change (FC) in assay [1] stood at 1.1.

As to `CCOC(=O)c1c(NC(=O)CC2SC(=N)NC2=O)sc2c1CCCC2` (stereo unspecified), the fold change (FC) in assay [1] worked out at 1.6.

As a reminder, the Kd is the concentration at which binding is half-saturated. One may read the EC50 as the midpoint of the concentration-response curve. Low readings indicate a more potent agent, high ones a less potent agent.

For the origin of these results see ChEMBL document CHEMBL1156102, “Identification of iminooxothiazolidines as secreted frizzled related protein-1 inhibitors” (Bioorg Med Chem Lett, 2009).
